In patent US8299048B2, “Hexahydrocyclopentyl[f]indazole sulfonamides and derivatives thereof as selective glucocorticoid receptor modulators” (Merck Sharp & Dohme Corp., priority 2008, dated 2012):

Biological target: T1, glucocorticoid receptor (Homo sapiens, UniProt P04150)
T1 construct: endogenous in cells
T1 sequence (P04150 1-777): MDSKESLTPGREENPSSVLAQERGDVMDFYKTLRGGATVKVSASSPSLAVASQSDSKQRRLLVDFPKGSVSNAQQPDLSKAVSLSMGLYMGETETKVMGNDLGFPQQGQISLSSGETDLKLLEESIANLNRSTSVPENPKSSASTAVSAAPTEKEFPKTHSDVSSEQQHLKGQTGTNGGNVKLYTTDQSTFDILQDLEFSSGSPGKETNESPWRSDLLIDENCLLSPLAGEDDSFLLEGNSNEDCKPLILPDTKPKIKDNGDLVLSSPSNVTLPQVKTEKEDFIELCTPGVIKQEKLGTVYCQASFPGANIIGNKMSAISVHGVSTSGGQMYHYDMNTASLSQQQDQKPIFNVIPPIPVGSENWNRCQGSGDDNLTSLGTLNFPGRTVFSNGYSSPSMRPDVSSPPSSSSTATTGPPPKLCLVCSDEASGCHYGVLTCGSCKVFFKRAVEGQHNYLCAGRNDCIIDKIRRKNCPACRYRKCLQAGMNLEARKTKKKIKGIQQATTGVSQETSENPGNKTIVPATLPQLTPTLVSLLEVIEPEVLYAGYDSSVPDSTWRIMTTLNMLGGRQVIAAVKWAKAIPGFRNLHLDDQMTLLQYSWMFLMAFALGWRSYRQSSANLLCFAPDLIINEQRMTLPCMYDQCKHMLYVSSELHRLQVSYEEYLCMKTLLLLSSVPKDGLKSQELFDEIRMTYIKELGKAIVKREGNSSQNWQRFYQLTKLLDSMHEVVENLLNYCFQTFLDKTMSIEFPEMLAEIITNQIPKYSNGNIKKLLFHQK
Experiment: Ligand binding assay (GR BIND)
Procedure: • Materials: • Binding Buffer: TEGM (10 mM Tris-HCl, 1 mM EDTA, 10% glycerol, 1 mM beta-mecaptoethanol, 10 mM Sodium Molybdate, pH 7.2) • 50% HAP Slurry: Calbiochem Hydroxylapatite, Fast Flow, in 10 mM Tris, pH 8.0 and 1 mM EDTA. • Wash Buffer: 40 mM Tris, pH7.5, 100 mM KCl, 1 mM EDTA and 1 mM EGTA.
Phenol red-free Trypsin-EDTA is diluted in the same PBS1:10. The cell layers are rinsed with 1× Trypsin, extra Trypsin is poured out, and the cell layers are incubated at 37° C. for ˜2 min. The flask is tapped and checked for signs of cell detachment. Once the cells begin to slide off the flask, the complete media is added. The cells are counted at this point, then diluted to the appropriate concentration and split into flasks or dishes for further culturing (Usually 1:3 to 1:6 dilution).
When the cells are 70 to 85% confluent, they are detached as described above, and collected by centrifuging at 1000 g for 10 minutes at 4° C. The cell pellet is washed twice with TEGM (10 mM Tris-HCl, 1 mM EDTA, 10% glycerol, 1 mM beta-mercaptoethanol, 10 mM Sodium Molybdate, pH 7.2). After the final wash, the cells are resuspended in TEGM at a concentration of 10^7 cells/mL. The cell suspension is snap frozen in liquid nitrogen or ethanol/dry ice bath and transferred to −80° C. freezer on dry ice. Before setting up the binding assay, the frozen samples are left on ice-water to just thaw (˜1 hr). Then the samples are centrifuged at 12,500 g to 20,000 g for 30 min at 4° C. The supernatant is used to set-up assay right away. If using 50 μL of supernatant, the test compound can be prepared in 50 μL of the TEGM buffer.
1×TEGM buffer is prepared, and the isotope-containing assay mixture is prepared in the following order: EtOH (2% final concentration in reaction), 3H-DEX (Amersham Biosciences) and 1×TEGM. [e.g. For 100 samples, 200 μL (100×2) of EtOH+4.25 μL of 1:10 ^3H—Dex stock+2300 μL (100×23) 1×TEGM]. The compound is serially diluted, e.g., if starting final conc. is 1 μM, and the compound is in 25 μL of solution, for duplicate samples, 75 μL of 4×1 μM solution is made and 3 μL of 100 μM is added to 72 μL of buffer, and 1:5 serial dilution.
25 μL of ^3H-DEX (6 nM) trace and 25 μL compound solution are first mixed together, followed by addition of 50 μL receptor solution. The reaction is gently mixed, spun briefly at about 200 rpm and incubated at 4° C. overnight. 100 μL of 50% HAP slurry is prepared and added to the incubated reaction which is then vortexed and incubated on ice for 5 to 10 minutes. The reaction mixture is vortexed twice more to resuspend HAP while incubating reaction. The samples in 96-well format are then washed in wash buffer using The FilterMate™ Universal Harvester plate washer (Packard). The washing process transfers HAP pellet containing ligand-bound expressed receptor to Unifilter-96 GF/B filter plate (Packard). The HAP pellet on the filter plate is incubated with 50 μL of MICROSCINT (Packard) scintillint for 30 minutes before being counted on the TopCount microscintillation counter (Packard). […] are calculated using DEX as a reference.

Row | Structure (SMILES) | Ki [nM]
1 | Cc1noc(C)c1S(=O)(=O)N(CCc1ccccc1O)C[C@H]1CCC2=Cc3c(cnn3-c3ccc(F)cc3)C[C@@]21C [Example 123, N-{[(4αR,5S)-1-(4-fluorophenyl)-4α-methyl-1,4,4α,5,6,7-hexahydrocyclopenta[f]indazol-5-yl]methyl}-N-[2-(2-hydroxyphenyl)ethyl]-3,5-dimethylisoxazole-4-sulfonamide] | 0.9
2 | C[C@]12Cc3cnn(-c4ccc(F)cc4)c3C=C1CC[C@@H]2CN(CCc1ccccc1F)S(=O)(=O)Cc1cccnc1 [Example 124, N-[2-(2-fluorophenyl)ethyl]-N-{[(4αR,5S)-1-(4-fluorophenyl)-4α-methyl-1,4,4α,5,6,7-hexahydrocyclopenta[f]indazol-5-yl]methyl}-1-pyridin-3-ylmethanesulfonamide] | 0.7
3 | COc1ccccc1CCN(C[C@H]1CCC2=Cc3c(cnn3-c3ccc(F)cc3)C[C@@]21C)S(=O)(=O)Cc1cccnc1 [Example 125, N-{[(4αR,5S)-1-(4-fluorophenyl)-4α-methyl-1,4,4α,5,6,7-hexahydrocyclopenta[f]indazol-5-yl]methyl}-N-[2-(2-methoxyphenyl)ethyl]-1-pyridin-3-ylmethanesulfonamide] | 1
4 | COc1cccc(CCN(C[C@H]2CCC3=Cc4c(cnn4-c4ccc(F)cc4)C[C@@]32C)S(=O)(=O)CC(F)(F)F)c1 [Example 126, 2,2,2-trifluoro-N-{[(4αR,5S)-1-(4-fluorophenyl)-4α-methyl-1,4,4α,5,6,7-hexahydrocyclopenta[f]indazol-5-yl]methyl}-N-[2-(3-methoxyphenyl)ethyl]ethanesulfonamide] | 0.9
5 | COc1ccc(CCN(C[C@H]2CCC3=Cc4c(cnn4-c4ccc(F)cc4)C[C@@]32C)S(=O)(=O)CC(F)(F)F)cc1 [Example 127, 2,2,2-trifluoro-N-{[(4αR,5S)-1-(4-fluorophenyl)-4α-methyl-1,4,4α,5,6,7-hexahydrocyclopenta[f]indazol-5-yl]methyl}-N-[2-(4-methoxyphenyl)ethyl]ethanesulfonamide] | 1.1
6 | C[C@]12Cc3cnn(-c4ccc(F)cc4)c3C=C1CC[C@@H]2CN(CCc1ccccn1)S(=O)(=O)CC(F)(F)F [Example 128, 2,2,2-trifluoro-N-{[(4αR,5S)-1-(4-fluorophenyl)-4α-methyl-1,4,4α,5,6,7-hexahydrocyclopenta[f]indazol-5-yl]methyl}-N-(2-pyridin-2-ylethyl)ethanesulfonamide] | 0.8
7 | C[C@]12Cc3cnn(-c4ccc(F)cc4)c3C=C1CC[C@@H]2CN(CCc1ccncc1)S(=O)(=O)CC(F)(F)F [Example 129, 2,2,2-trifluoro-N-{[(4αR,5S)-1-(4-fluorophenyl)-4α-methyl-1,4,4α,5,6,7-hexahydrocyclopenta[f]indazol-5-yl]methyl}-N-(2-pyridin-4-ylethyl)ethanesulfonamide] | 1.9
8 | C[C@]12Cc3cnn(-c4ccc(F)cc4)c3C=C1CC[C@@H]2CN(CCc1ccc(O)cc1)S(=O)(=O)CC(F)(F)F [Example 130, 2,2,2-trifluoro-N-{[(4αR,5S)-1-(4-fluorophenyl)-4α-methyl-1,4,4α,5,6,7-hexahydrocyclopenta[f]indazol-5-yl]methyl}-N-[2-(4-hydroxyphenyl)ethyl]ethanesulfonamide] | 1.8
9 | C[C@]12Cc3cnn(-c4ccc(F)cc4)c3C=C1CC[C@@H]2CN(CCc1ccccc1O)S(=O)(=O)Cc1cccnc1 [Example 131, N-{[(4αR,5S)-1-(4-fluorophenyl)-4α-methyl-1,4,4α,5,6,7-hexahydrocyclopenta[f]indazol-5-yl]methyl}-N-[2-(2-hydroxyphenyl)ethyl]-1-pyridin-3-ylmethanesulfonamide] | 1.7
10 | C[C@]12Cc3cnn(-c4ccc(F)cc4)c3C=C1CC[C@@H]2CN(Cc1cccnn1)S(=O)(=O)CC(F)(F)F [Example 132, 2,2,2-trifluoro-N-{[(4αR,5S)-1-(4-fluorophenyl)-4α-methyl-1,4,4α,5,6,7-hexahydrocyclopenta[f]indazol-5-yl]methyl}-N-(pyridazin-3-ylmethyl)ethanesulfonamide] | 5.5
11 | C[C@]12Cc3cnn(-c4ccc(F)cc4)c3C=C1CC[C@@H]2CN(CC(O)C(F)F)S(=O)(=O)CC(F)(F)F (stereo partly drawn) [Example 133, N-(3,3-difluoro-2-hydroxypropyl)-2,2,2-trifluoro-N-{[(4αR,5S)-1-(4-fluorophenyl)-4α-methyl-1,4,4α,5,6,7-hexahydrocyclopenta[f]indazol-5-yl]methyl}ethanesulfonamide] | 0.8
12 | C[C@]12Cc3cnn(-c4ccc(F)cc4)c3C=C1CC[C@@H]2CN(CC(OS(=O)(=O)CC(F)(F)F)C(F)F)S(=O)(=O)CC(F)(F)F (stereo partly drawn) [Example 134, 2,2-difluoro-1-({{[(4αR,5S)-1-(4-fluorophenyl)-4α-methyl-1,4,4α,5,6,7-hexahydrocyclopenta[f]indazol-5-yl]methyl}[(2,2,2-trifluoroethyl)sulfonyl]amino}methyl)ethyl 2,2,2-trifluoroethanesulfonate] | 1.8
13 | C[C@]12Cc3cnn(-c4ccc(F)cc4)c3C=C1CC[C@@H]2CN(CC1(O)CC1)S(=O)(=O)CC(F)(F)F [Example 135, 2,2,2-trifluoro-N-{[(4αR,5S)-1-(4-fluorophenyl)-4α-methyl-1,4,4α,5,6,7-hexahydrocyclopenta[f]indazol-5-yl]methyl}-N-[(1-hydroxycyclopropyl)methyl]ethanesulfonamide] | 2.9
14 | C[C@]12Cc3cnn(-c4ccc(F)cc4)c3C=C1CC[C@@H]2CN(CC1(OS(=O)(=O)CC(F)(F)F)CC1)S(=O)(=O)CC(F)(F)F [Example 136, 1-({{[(4αR,5S)-1-(4-fluorophenyl)-4α-methyl-1,4,4α,5,6,7-hexahydrocyclopenta[f]indazol-5-yl]methyl}[(2,2,2-trifluoroethyl)sulfonyl]amino}methyl)cyclopropyl 2,2,2-trifluoroethanesulfonate] | 2.5
15 | C[C@]12Cc3cnn(-c4ccccc4)c3C=C1CC[C@@H]2CN(CCc1ccccc1F)S(=O)(=O)CC(F)(F)F [Example 137, 2,2,2-trifluoro-N-[2-(2-fluorophenyl)ethyl]-N-{[(4αR,5S)-4α-methyl-1-phenyl-1,4,4α,5,6,7-hexahydrocyclopenta[f]indazol-5-yl]methyl}ethanesulfonamide] | 0.9
16 | C[C@]12Cc3cnn(-c4ccccc4)c3C=C1CC[C@@H]2CN(CCc1ccccn1)S(=O)(=O)CC(F)(F)F [Example 138, 2,2,2-trifluoro-N-{[(4αR,5S)-4α-methyl-1-phenyl-1,4,4α,5,6,7-hexahydrocyclopenta[f]indazol-5-yl]methyl}-N-(2-pyridin-2-ylethyl)ethanesulfonamide] | 1.2
